Test results reported in paper PMC9976467, “Anti-Trypanosoma cruzi activity of Coptis rhizome extract and its constituents” (Tropical Medicine and Health, 2023).

Experiments:
[1] = tested on: T. cruzi Trypo + Ama (Luc2-Tulahuen); test: In vitro anti-T. cruzi (trypomastigotes and amastigotes) mixture culture luciferase assay; format: cell-based, Trypanosoma cruzi; conditions: for reduction of parasite signals (inhibition in the T. cruzi mixture culture): first screen, compounds 20 μM (Fig. 1); for inhibition at 20 µM / IC50: Trypanosoma cruzi, TULAHUEN; for inhibition at 20 µM: read-out: reduction of parasite signals (inhibition in the T. cruzi mixture culture); for IC50: trypomastigotes mixed with NMH cells, 72 h
Experimental: Luc2-Tulahuen trypomastigotes (3 × 10^4/well) and NMH cells (5 × 10^4/well) were mixed into a 96-well white plate. Test samples and controls were added and incubated with the cells for 72 h. NP-40 (Wako Pure Chemicals Industrial Ltd, Japan) was used as the positive control, and a solvent in which the drug was dissolved as a negative. After 72 h of incubation, 100 μl of luciferin solution containing 0.6% NP-40 (Piccagene) (Toyo Ink Group, Japan) was added. Luminescence intensity was measured by a plate reader (ARVO MX 1420) (Measurement time: 1 s).
(§1) The IC50 was calculated using the following equation: IC50=10^logA/B×50-C/D-C+logB, where A is the lowest concentration at which the percentage inhibition exceeds 50%, B is the highest concentration at which percentage inhibition is less than 50%, and C and D are the percentage inhibition of the sample at concentrations B and A, respectively.

[2] = Cytotoxicity, alamarBlue viability, NMH cells; format: cell-based, mouse; conditions: mouse
Experimental: (§2) NMH cells or HuH28 cells (1 × 10^4/well) of 100 μl aliquots were seeded on a 96-well black plate. Test samples were added and incubated for 72 h. NP-40 was added as a positive control (100% cytotoxicity) and a solvent in which the samples were dissolved as a negative control (0% cytotoxicity). Then 10 μl of alamarBlue reagent (10%, Funakoshi Co., Tokyo, Japan) for mitochondria staining was added and incubated for another 4 h. The fluorescence intensity (544 nm/590 nm) was measured with a plate reader (measurement time: 0.1 s).
as §1, with “concentration required to reduce cell viability by 50% (CC50)” for “IC50”, “CC50=10^logA/B×50-C/D-C+logB,” for “IC50=10^logA/B×50-C/D-C+logB,”, “cell viability” for “percentage inhibition”

[3] = tested on: T. cruzi Intracell Ama (Luc2-Tulahuen); test: In vitro anti-T. cruzi (intracellular amastigotes) luciferase assay in NMH cells; format: cell-based, Trypanosoma cruzi; conditions: for loss of luminescence intensity in IC50 curve, in words: NMH cells with amastigotes (Supplement Figure 2); for IC50: Trypanosoma cruzi, TULAHUEN, infected NMH cells, 72 h
Experimental: The intracellular amastigotes assay was described by Alonso-Padilla et al.. Briefly, 6 × 10^6 trypomastigotes and 3 × 10^6 host cells (NMH cells) are seeded in a 25 cm^2 flask in serum-free media (MEM + 1% newborn calf serum) to enhance the intracellular infection. After 24 h incubation, the cells were washed twice with phosphate buffered saline (PBS), then replaced by MEM + 10% newborn calf serum and incubated for another 24 h. Infected cells were detached by trypsinization. Infected host fibroblast cells (5 × 10^4/well) were seeded into a 96-well plate. Test samples and the controls were added to the mixture and incubated for 72 h. Luminescence intensity was measured by a plate reader and the Piccagene (Measurement time: 1 s).
as §1

[4] = Cytotoxicity, alamarBlue viability, HuH28 cells; format: cell-based; conditions: human
Experimental: as §2
as §1, with “concentration required to reduce cell viability by 50% (CC50)” for “IC50”, “CC50=10^logA/B×50-C/D-C+logB,” for “IC50=10^logA/B×50-C/D-C+logB,”, “cell viability” for “percentage inhibition”

[5] = tested on: T. cruzi Epi (Luc2-Tulahuen epimastigotes); test: In vitro assay for anti-epimastigote form of T. cruzi activity (luciferase); format: cell-based, Trypanosoma cruzi; conditions: for IC50: Trypanosoma cruzi, TULAHUEN, epimastigotes, 72 h
Experimental: Luc2-Tulahuen epimastigotes (2 × 10^5/well) were dispensed into 96-well plate. After 72 h incubation, luminescence intensity was measured by adding lysis buffer with luciferin as substrate (PicaGene Luminescence Kit, Fuji Film Wako chemicals, Japan) (Measurement time: 1 s).
as §1

[6] = tested on: mouse fibroblast cells (NMH) and human bile duct carcinoma cell line (HuH28); test: Cytotoxicity screen of Kampo library on host cells (alamarBlue); format: cell-based; conditions: compounds 20 μM (Fig. 2)
Description: Data are presented as percent reduction in intensity, indicating cell viability. Experiments were done in triplicates

human DHODH = tested on: human DHODH; design: method as in PMID 29582555; conditions: cited from earlier work
[7] = tested on: T. cruzi (Luc2-Tulahuen trypomastigotes); test: Murine acute infection model with live bioluminescence imaging; format: in vivo, BALB/c mice; conditions: for luminescence intensity / parasiticidal activity compared with benznidazole group: 30 mg/kg bid i.p. vs benznidazole 100 mg/kg p.o., day 4 to 8
Experimental: Mice were housed and maintained in Nagasaki University Biomedical Research Center (12 h light/dark cycle). Female BALB/c mice from 6 to 10 weeks old (20–25 g) were used in all the experiments. Mice were obtained as wild type from SLC (Japan). In standard experiments, 5 × 10^3 in vitro tissue culture-derived trypomastigotes (TCTs) was intra-peritoneally (i.p.) inoculated into mouse. The mice were handled according to the international guidelines and institutional guideline of Nagasaki University for the use and maintenance of experimental animals. Ethical approval for this study was obtained from the institutional ethical review board, Nagasaki University (approval number R12005).
Mice were intra-peritoneally injected with 150 mg/kg d-luciferin (SYD labs, USA), then anesthetized using 2.5% (vol/vol) gaseous isoflurane in oxygen. To measure bioluminescence, mice were placed in an IVIS Lumina II system (Caliper Life Science, USA) and images were acquired 10 min after d-luciferin administration using LivingImage 4.3 (Caliper Life Sciences, USA). Exposure time was fixed as 5 min. Anesthesia was maintained throughout the imaging process through the nose cone. Whole body luminescence was determined by drawing the region of interest (ROI) and quantifying the bioluminescence expressed as total flux (photons/second; p/s). Coptisine chloride was administered intra-peritoneally (i.p.) at a dose of 30 mg/kg twice a day. Benznidazole (100 mg/kg) as a positive control and the drug solvent as a negative control were administered orally (p.o.) once a day. Drug was administered for 5 consecutive days from day 4 to 8 of infection. Measurements with IVIS Lumina II were performed at five different times: on day 3 of infection (the day before drug treatment), on day 9 of infection (the day after drug treatment was completed), on day 14, 28 and 40 of infection. To maintain fairness, different experimenters performed drug treatments and luminescence intensity measurements. At day 29, BALB/c mice were injected with cyclophosphamide (Sigma-Aldrich, USA) (200 mg/kg) as an immunosuppressant by i.p. and were followed by a maximum of 3 doses at 3 day intervals. The use of immunosuppressant like cyclophosphamide could help enhance the visibility of the infected lesions even after 100 dpi. In this animal study, treatment was given when the luminescence intensity was high. In addition, an immunosuppressant was administered when the difference in luminescence intensity among the three groups became small due to natural immunity of the mice.

[8] = tested on: DHODH in Plasmodium falciparum; design: method as in PMID 29582555; conditions: cited from earlier work
[9] = in vivo; cited from earlier work
[10] = tested on: NMH cells (newborn mouse heart fibroblast cells); test: Cytotoxicity, alamarBlue viability, NMH cells; format: cell-based
Experimental: as §2
as §1, with “concentration required to reduce cell viability by 50% (CC50)” for “IC50”, “CC50=10^logA/B×50-C/D-C+logB,” for “IC50=10^logA/B×50-C/D-C+logB,”, “cell viability” for “percentage inhibition”

[11] = NMH cells (newborn mouse heart fibroblast cells), 72 h, read-out: CC50, NMH, AlamarBlue viability
[12] = HuH28 cells (human bile duct carcinoma cell line), 72 h, read-out: CC50, HuH28, AlamarBlue viability

Row | SMILES | inhibition at 20 µM [1] | IC50 [3] | IC50 [1] | CC50 at 72 h [2] | IC50 [5] | CC50 at 72 h [4] | other results
1 | COc1ccc2cc3[n+](cc2c1OC)CCc1cc2c(cc1-3)OCO2.[Cl-] [Berberin chloride] | – | – | – | – | – | – | reduction of parasite signals (inhibition in the T. cruzi mixture culture) [1]: more than 80%
2 | C[C@H]1CC[C@@]2(OC1)O[C@H]1C[C@H]3[C@@H]4CC[C@@H]5C[C@@H](O[C@@H]6O[C@H](CO)[C@H](O)[C@H](O)[C@H]6O[C@@H]6O[C@H](CO)[C@@H](O)[C@H](O)[C@H]6O)CC[C@]5(C)[C@H]4CC[C@]3(C)[C@H]1[C@@H]2C [Timosaponin A-III] | > 80% | – | – | – | – | – | –
3 | CC(C)=CC[C@@H](O)C1=CC(=O)c2c(O)ccc(O)c2C1=O [Shikonin] | > 80% | – | – | – | – | – | –
4 | c1cc2c(c3c1CC1c4cc5c(cc4CCN1C3)OCO5)OCO2 (racemic) [dl-Tetrahydro coptisine] | – | > 40 µM | > 40 µM | – | – | – | CC50 at 72 h [2, 11]: > 40 µM; loss of luminescence intensity in IC50 curve, in words [3]: No loss of intensity; loss of luminescence intensity in IC50 curve, in words ([1]; NMH cells and trypomastigotes (Supplement Figure 1)): No loss of intensity; CC50 at 72 h [4, 12]: > 100 µM
5 | COc1cc2c(cc1OC)-c1c(C)c3ccc(OC)c(OC)c3c[n+]1CC2 [Dehydrocorydaline nitrate] | > 80% | 7.89 µM | 3.47 µM | > 40 µM | 17.3 µM | > 100 µM | cytotoxic effect on host cells, in words [6]: relatively lower cytotoxicity
6 | CC(C)=CC[C@H](O)C1=CC(=O)c2c(O)ccc(O)c2C1=O [Alkanin] | – | – | – | – | – | – | reduction of parasite signals (inhibition in the T. cruzi mixture culture) [1]: more than 80%
7 | COc1cc2c(cc1OC)-c1cc3ccc(OC)c(OC)c3c[n+]1CC2 [Palmatine chloride] | > 80% | 17.4 µM | 2.66 µM | – | 22.3 µM | – | CC50 at 72 h [2, 11]: > 40 µM; cytotoxic effect on host cells, in words [6]: relatively lower cytotoxicity; CC50 at 72 h [4, 12]: > 100 µM
8 | c1c2c(cc3c1OCO3)-c1cc3ccc4c(c3c[n+]1CC2)OCO4 [Coptisine chloride] | > 80% | 4.98 µM | 4.48 µM | – | 15.1 µM | – | CC50 at 72 h [2, 11]: > 40 µM; inhibitory activity against human DHODH, in words (human DHODH): weak inhibitory activity; effectiveness against epimastigotes relative to benznidazole ([5]; from IC50 15.1 µM vs 3.78 µM): fourfold less effective; relapse detected on day 40 after immunosuppressant ([7]; 30 mg/kg bid i.p. day 4 to 8, compared with benznidazole 100 mg/kg p.o.): smaller than that in the benznidazole treatment group; luminescence intensity after immune suppression treatment compared with control group ([7]; 30 mg/kg bid i.p. day 4 to 8, day 40, after cyclophosphamide): significantly reduced; luminescence intensity / parasiticidal activity compared with benznidazole group ([7]; listed as coptisine): equivalent parasiticidal activity; luminescence intensity / parasiticidal activity compared with benznidazole group ([7]; listed as coptisine chloride): slightly higher than that of the benznidazole group; luminescence intensity of treated group compared with untreated group ([7]; 30 mg/kg bid i.p., day 4 to 8 of infection, after 5-day treatment): significantly reduced; adverse events during in vivo experiment ([7]; BALB/c mice, 30 mg/kg bid i.p.): did not see any significant adverse events; inhibition of DHODH in Plasmodium falciparum, in words [8]: non-competitively inhibits; cytotoxic effect on host cells, in words [6]: relatively lower cytotoxicity; oral bioavailability, in words [9]: low; CC50 at 72 h [4, 12]: > 100 µM
9 | COc1cc2c(cc1OC)-c1cc3ccc4c(c3c[n+]1CC2)OCO4 [Epiberberine chloride] | – | > 40 µM | > 40 µM | > 40 µM | – | > 100 µM | loss of luminescence intensity in IC50 curve, in words [3]: No loss of intensity
10 | O=C(Cn1ccnc1[N+](=O)[O-])NCc1ccccc1 [Benznidazole, reference compound] | – | 4.91 µM | 2.78 µM | > 40 µM | 3.78 µM | > 100 µM | –
11 | COc1ccc2cc3[n+](cc2c1O)CCc1cc2c(cc1-3)OCO2 [Berberrubine chloride] | – | 33.5 µM | 20.1 µM | > 40 µM | – | > 100 µM | cytotoxic effect against normal NMH cells, in words [10]: slight cytotoxic effect
